Test results: ChEMBL document CHEMBL3611970, “Synthesis and evaluation of isatin-β-thiosemicarbazones as novel agents against antibiotic-resistant Gram-positive bacterial species” (2015)
In brackets after ≈: the same amount, converted by molar mass.

Assays:
Assay type in all cases: functional
[1] = test system: Staphylococcus aureus; test: Antimicrobial activity against methicillin-resistant Staphylococcus aureus Chaoyang clinical isolate after 16 hrs by broth microdilution method
[2] = test system: Staphylococcus aureus; test: Antimicrobial activity against Staphylococcus aureus ATCC 6538 after 16 hrs by broth microdilution method; details: ATCC 6538, 16 h
[3] = test system: Bacillus spizizenii; test: Antimicrobial activity against Bacillus subtilis ATCC 6633 after 16 hrs by broth microdilution method; details: ATCC 6633, 16 h
[4] = test system: Enterococcus faecalis; test: Antimicrobial activity against vancomycin-susceptible Enterococcus faecalis after 16 hrs by broth microdilution method
[5] = test system: Enterococcus faecalis; test: Antimicrobial activity against Enterococcus faecalis VRE-309 after 16 hrs by broth microdilution method; details: VRE-309, 16 h
[6] = test system: Pseudomonas aeruginosa; test: Antimicrobial activity against Pseudomonas aeruginosa PAO1 after 16 hrs by broth microdilution method; details: PAO1, 16 h
[7] = test system: Klebsiella pneumoniae; test: Antimicrobial activity against Klebsiella pneumoniae KP-249 clinical isolate after 16 hrs by broth microdilution method; details: KP-249, 16 h
[8] = test system: Staphylococcus aureus; test: Antimicrobial activity against methicillin-resistant Staphylococcus aureus 309-4 clinical isolate after 16 hrs by broth microdilution method; details: 309-4, 16 h
[9] = test system: Staphylococcus aureus; test: Antimicrobial activity against methicillin-resistant Staphylococcus aureus 6281 clinical isolate after 16 hrs by broth microdilution method; details: Staphylococcus aureus, 6281, 16 h
[10] = test system: Staphylococcus aureus; test: Antimicrobial activity against methicillin-resistant Staphylococcus aureus 309-8 clinical isolate after 16 hrs by broth microdilution method; details: 309-8, 16 h
[11] = test system: Staphylococcus aureus; test: Antimicrobial activity against methicillin-resistant Staphylococcus aureus 6-42 clinical isolate after 16 hrs by broth microdilution method; details: 6-42, 16 h
[12] = test system: Staphylococcus aureus; test: Antimicrobial activity against methicillin-resistant Staphylococcus aureus 8-21 clinical isolate after 16 hrs by broth microdilution method; details: 8-21, 16 h
[13] = test system: Staphylococcus aureus; test: Antimicrobial activity against methicillin-resistant Staphylococcus aureus 309-3 clinical isolate after 16 hrs by broth microdilution method; details: 309-3, 16 h
[14] = test system: Staphylococcus aureus; test: Antimicrobial activity against methicillin-resistant Staphylococcus aureus 309-1 clinical isolate after 16 hrs by broth microdilution method; details: 309-1, 16 h
[15] = test system: Staphylococcus aureus; test: Antimicrobial activity against methicillin-resistant Staphylococcus aureus 309-7 clinical isolate after 16 hrs by broth microdilution method; details: 309-7, 16 h
[16] = test system: Staphylococcus aureus; test: Antimicrobial activity against methicillin-resistant Staphylococcus aureus 8-24 clinical isolate after 16 hrs by broth microdilution method; details: 8-24, 16 h
[17] = test system: Staphylococcus aureus; test: Antimicrobial activity against methicillin-resistant Staphylococcus aureus 309-6 clinical isolate after 16 hrs by broth microdilution method; details: 309-6, 16 h

O=C1Nc2c(Br)cccc2/C1=N/NC(=S)Nc1ccc(Cl)cc1
MIC [1]: 0.39 µg/mL (≈ 0.952 µM)
MIC [2]: 1.56 µg/mL (≈ 3.81 µM)
MIC [3]: ≤ 0.78 µg/mL
MIC [4]: 3.12 µg/mL (≈ 7.62 µM)
MIC [5]: 1.56 µg/mL (≈ 3.81 µM)
MIC [6]: > 100 µg/mL
MIC [7]: > 100 µg/mL
MIC [8]: 0.78 µg/mL (≈ 1.9 µM)
MIC [9]: 1.56 µg/mL (≈ 3.81 µM)
MIC [10]: 0.78 µg/mL (≈ 1.9 µM)
MIC [11]: 0.78 µg/mL (≈ 1.9 µM)
MIC [12]: 0.78 µg/mL (≈ 1.9 µM)
MIC [13]: 0.78 µg/mL (≈ 1.9 µM)
MIC [14]: 0.78 µg/mL (≈ 1.9 µM)
MIC [15]: 0.39 µg/mL (≈ 0.952 µM)
MIC [16]: 1.56 µg/mL (≈ 3.81 µM)
MIC [17]: 1.56 µg/mL (≈ 3.81 µM)

Cc1ccc(NC(=S)N/N=C2\C(=O)Nc3c(C)cccc32)cc1
MIC [1]: 1.56 µg/mL (≈ 4.81 µM)
MIC [2]: 3.12 µg/mL (≈ 9.62 µM)
MIC [3]: ≤ 0.78 µg/mL
MIC [4]: 6.25 µg/mL (≈ 19.3 µM)
MIC [5]: 3.12 µg/mL (≈ 9.62 µM)
MIC [6]: > 100 µg/mL
MIC [7]: > 100 µg/mL
MIC [8]: 1.56 µg/mL (≈ 4.81 µM)
MIC [9]: 3.12 µg/mL (≈ 9.62 µM)
MIC [10]: 1.56 µg/mL (≈ 4.81 µM)
MIC [11]: 1.56 µg/mL (≈ 4.81 µM)
MIC [12]: 3.12 µg/mL (≈ 9.62 µM)
MIC [13]: 3.12 µg/mL (≈ 9.62 µM)
MIC [14]: 3.12 µg/mL (≈ 9.62 µM)
MIC [15]: 1.56 µg/mL (≈ 4.81 µM)
MIC [16]: 3.12 µg/mL (≈ 9.62 µM)
MIC [17]: 3.12 µg/mL (≈ 9.62 µM)

Cc1cccc2c1NC(=O)/C2=N\NC(=S)Nc1ccc(Cl)cc1
MIC [1]: 0.78 µg/mL (≈ 2.26 µM)
MIC [2]: 1.56 µg/mL (≈ 4.52 µM)
MIC [3]: 1.56 µg/mL (≈ 4.52 µM)
MIC [4]: 3.12 µg/mL (≈ 9.05 µM)
MIC [5]: 1.56 µg/mL (≈ 4.52 µM)
MIC [6]: > 100 µg/mL
MIC [7]: > 100 µg/mL
MIC [8]: 1.56 µg/mL (≈ 4.52 µM)
MIC [9]: 3.12 µg/mL (≈ 9.05 µM)
MIC [10]: 1.56 µg/mL (≈ 4.52 µM)
MIC [11]: 1.56 µg/mL (≈ 4.52 µM)
MIC [12]: 1.56 µg/mL (≈ 4.52 µM)
MIC [13]: 3.12 µg/mL (≈ 9.05 µM)
MIC [14]: 1.56 µg/mL (≈ 4.52 µM)
MIC [15]: 1.56 µg/mL (≈ 4.52 µM)
MIC [16]: 1.56 µg/mL (≈ 4.52 µM)
MIC [17]: 3.12 µg/mL (≈ 9.05 µM)

Cc1cccc2c1NC(=O)/C2=N\NC(=S)Nc1ccc(F)cc1
MIC [1]: 0.78 µg/mL (≈ 2.38 µM)
MIC [2]: 1.56 µg/mL (≈ 4.75 µM)
MIC [3]: ≤ 0.78 µg/mL
MIC [4]: 3.12 µg/mL (≈ 9.5 µM)
MIC [5]: 1.56 µg/mL (≈ 4.75 µM)
MIC [6]: > 100 µg/mL
MIC [7]: > 100 µg/mL
MIC [8]: 1.56 µg/mL (≈ 4.75 µM)
MIC [9]: 3.12 µg/mL (≈ 9.5 µM)
MIC [10]: 1.56 µg/mL (≈ 4.75 µM)
MIC [11]: 1.56 µg/mL (≈ 4.75 µM)
MIC [12]: 1.56 µg/mL (≈ 4.75 µM)
MIC [13]: 1.56 µg/mL (≈ 4.75 µM)
MIC [14]: 1.56 µg/mL (≈ 4.75 µM)
MIC [15]: 0.78 µg/mL (≈ 2.38 µM)
MIC [16]: 1.56 µg/mL (≈ 4.75 µM)
MIC [17]: 1.56 µg/mL (≈ 4.75 µM)

Cc1ccccc1NC(=S)N/N=C1\C(=O)Nc2c(F)cccc21
MIC [1]: 1.56 µg/mL (≈ 4.75 µM)
MIC [2]: 3.12 µg/mL (≈ 9.5 µM)
MIC [3]: ≤ 0.78 µg/mL
MIC [4]: 6.25 µg/mL (≈ 19 µM)
MIC [5]: 6.25 µg/mL (≈ 19 µM)
MIC [6]: > 100 µg/mL
MIC [7]: > 100 µg/mL
MIC [8]: 1.56 µg/mL (≈ 4.75 µM)
MIC [9]: 3.12 µg/mL (≈ 9.5 µM)
MIC [10]: 1.56 µg/mL (≈ 4.75 µM)
MIC [11]: 1.56 µg/mL (≈ 4.75 µM)
MIC [12]: 1.56 µg/mL (≈ 4.75 µM)
MIC [13]: 3.12 µg/mL (≈ 9.5 µM)
MIC [14]: 1.56 µg/mL (≈ 4.75 µM)
MIC [15]: 1.56 µg/mL (≈ 4.75 µM)
MIC [16]: 1.56 µg/mL (≈ 4.75 µM)
MIC [17]: 3.12 µg/mL (≈ 9.5 µM)

O=C1Nc2c(F)cccc2/C1=N/NC(=S)Nc1ccc(F)cc1
MIC [1]: 0.78 µg/mL (≈ 2.35 µM)
MIC [2]: 1.56 µg/mL (≈ 4.69 µM)
MIC [3]: 1.56 µg/mL (≈ 4.69 µM)
MIC [4]: 3.12 µg/mL (≈ 9.39 µM)
MIC [5]: 3.12 µg/mL (≈ 9.39 µM)
MIC [6]: > 100 µg/mL
MIC [7]: > 100 µg/mL
MIC [8]: 1.56 µg/mL (≈ 4.69 µM)
MIC [9]: 3.12 µg/mL (≈ 9.39 µM)
MIC [10]: 1.56 µg/mL (≈ 4.69 µM)
MIC [11]: 1.56 µg/mL (≈ 4.69 µM)
MIC [12]: 1.56 µg/mL (≈ 4.69 µM)
MIC [13]: 1.56 µg/mL (≈ 4.69 µM)
MIC [14]: 1.56 µg/mL (≈ 4.69 µM)
MIC [15]: 1.56 µg/mL (≈ 4.69 µM)
MIC [16]: 1.56 µg/mL (≈ 4.69 µM)
MIC [17]: 3.12 µg/mL (≈ 9.39 µM)

Cc1cccc(NC(=S)N/N=C2\C(=O)Nc3c(F)cccc32)c1
MIC [1]: 0.39 µg/mL (≈ 1.19 µM)
MIC [2]: 1.56 µg/mL (≈ 4.75 µM)
MIC [3]: ≤ 0.78 µg/mL
MIC [4]: 3.12 µg/mL (≈ 9.5 µM)
MIC [5]: 3.12 µg/mL (≈ 9.5 µM)
MIC [6]: > 100 µg/mL
MIC [7]: > 100 µg/mL
MIC [8]: 0.78 µg/mL (≈ 2.38 µM)
MIC [9]: 1.56 µg/mL (≈ 4.75 µM)
MIC [10]: 0.78 µg/mL (≈ 2.38 µM)
MIC [11]: 0.78 µg/mL (≈ 2.38 µM)
MIC [12]: 0.78 µg/mL (≈ 2.38 µM)
MIC [13]: 0.78 µg/mL (≈ 2.38 µM)
MIC [14]: 0.78 µg/mL (≈ 2.38 µM)
MIC [15]: 0.78 µg/mL (≈ 2.38 µM)
MIC [16]: 1.56 µg/mL (≈ 4.75 µM)
MIC [17]: 1.56 µg/mL (≈ 4.75 µM)

COc1cccc(NC(=S)N/N=C2\C(=O)Nc3c(F)cccc32)c1
MIC [1]: 1.56 µg/mL (≈ 4.53 µM)
MIC [2]: 3.12 µg/mL (≈ 9.06 µM)
MIC [3]: 1.56 µg/mL (≈ 4.53 µM)
MIC [4]: > 100 µg/mL
MIC [5]: > 100 µg/mL
MIC [6]: > 100 µg/mL
MIC [7]: > 100 µg/mL
MIC [8]: 1.56 µg/mL (≈ 4.53 µM)
MIC [9]: 3.12 µg/mL (≈ 9.06 µM)
MIC [10]: 1.56 µg/mL (≈ 4.53 µM)
MIC [11]: 1.56 µg/mL (≈ 4.53 µM)
MIC [12]: 1.56 µg/mL (≈ 4.53 µM)
MIC [13]: 1.56 µg/mL (≈ 4.53 µM)
MIC [14]: 1.56 µg/mL (≈ 4.53 µM)
MIC [15]: 1.56 µg/mL (≈ 4.53 µM)
MIC [16]: 3.12 µg/mL (≈ 9.06 µM)
MIC [17]: 3.12 µg/mL (≈ 9.06 µM)

Cc1ccc(NC(=S)N/N=C2\C(=O)Nc3c(Br)cccc32)cc1
MIC [1]: 0.39 µg/mL (≈ 1 µM)
MIC [2]: 1.56 µg/mL (≈ 4.01 µM)
MIC [3]: ≤ 0.78 µg/mL
MIC [4]: > 100 µg/mL
MIC [5]: > 100 µg/mL
MIC [6]: > 100 µg/mL
MIC [7]: > 100 µg/mL
MIC [8]: 0.78 µg/mL (≈ 2 µM)
MIC [9]: 3.12 µg/mL (≈ 8.01 µM)
MIC [10]: 0.78 µg/mL (≈ 2 µM)
MIC [11]: 0.78 µg/mL (≈ 2 µM)
MIC [12]: 0.78 µg/mL (≈ 2 µM)
MIC [13]: 0.78 µg/mL (≈ 2 µM)
MIC [14]: 0.78 µg/mL (≈ 2 µM)
MIC [15]: 0.78 µg/mL (≈ 2 µM)
MIC [16]: 1.56 µg/mL (≈ 4.01 µM)
MIC [17]: 1.56 µg/mL (≈ 4.01 µM)

Cc1ccccc1NC(=S)N/N=C1\C(=O)Nc2c(Br)cccc21
MIC [1]: 0.78 µg/mL (≈ 2 µM)
MIC [2]: 1.56 µg/mL (≈ 4.01 µM)
MIC [3]: ≤ 0.78 µg/mL
MIC [4]: 12.5 µg/mL (≈ 32.1 µM)
MIC [5]: 6.25 µg/mL (≈ 16.1 µM)
MIC [6]: > 100 µg/mL
MIC [7]: > 100 µg/mL
MIC [8]: 1.56 µg/mL (≈ 4.01 µM)
MIC [9]: 3.12 µg/mL (≈ 8.01 µM)
MIC [10]: 1.56 µg/mL (≈ 4.01 µM)
MIC [11]: 0.78 µg/mL (≈ 2 µM)
MIC [12]: 1.56 µg/mL (≈ 4.01 µM)
MIC [13]: 1.56 µg/mL (≈ 4.01 µM)
MIC [14]: 1.56 µg/mL (≈ 4.01 µM)
MIC [15]: 0.78 µg/mL (≈ 2 µM)
MIC [16]: 1.56 µg/mL (≈ 4.01 µM)
MIC [17]: 1.56 µg/mL (≈ 4.01 µM)
